Assay results taken from BindingDB's records for doi:10.1021/jm050184y (National Taiwan University, 2005).
pIC50, pKi: −log10 of the molar value.

target: Replicase polyprotein 1ab (Severe acute respiratory syndrome coronavirus, UniProt P0C6X7); assay: SARS-CoV 3CL Protease Inhibition Assay; conditions: pH 7; 25 °C
Protocol: The effects of compound on enzyme activity were measured by using a fluorogenic peptide cleavage assay. Enhanced fluorescence caused by cleavage of the substrate peptide was monitored at 538 nm with excitation at 355 nm. The Ki measurements were performed at two fixed inhibitor concentrations and various substrate concentrations.

SMILES | pIC50 | pKi
O=C(C[C@H](O)C(=O)N[C@@H](Cc1ccccc1)C(=O)Nc1ccc([N+](=O)[O-])cc1Cl)N[C@@H](Cc1ccccc1)C(=O)Nc1ccc([N+](=O)[O-])cc1Cl [(2S)-N,N'-bis[(1S)-1-[(2-chloro-4-nitrophenyl)carbamoyl]-2-phenylethyl]-2-hydroxybutanediamide] | 5.40 | 5.51
Cc1cc(C(=O)N[C@H](C(=O)N[C@@H](Cc2ccccc2)C(=O)N[C@H](C(=O)N[C@@H](Cc2ccccc2)C(=O)Nc2ccc([N+](=O)[O-])cc2Cl)C(C)O)C(C)C)no1 (stereo partly drawn) [N-[(5-methylisoxazol-3-yl)carbonyl]-L-valyl-L-phenylalanyl-L-threonyl-N-(2-chloro-4-nitrophenyl)-L-phenylalaninamide] | 5.30 | 5.79
Cc1cc(C(=O)N[C@H](C(=O)N[C@@H](Cc2ccccc2)C(=O)N[C@@H](Cc2ccccc2)C(=O)Nc2ccc([N+](=O)[O-])cc2Cl)C(C)C)[n-][o+]1 [(2S)-N-[(1S)-1-{[(1S)-1-[(2-chloro-4-nitrophenyl)carbamoyl]-2-phenylethyl]carbamoyl}-2-phenylethyl]-3-methyl-2-[(5-methyl-1,2-oxazol-3-yl)formamido]butanamide] | 5.15 | 5.54
O=C(Nc1ccc([N+](=O)[O-])cc1Cl)c1cc(Cl)ccc1O [5-chloro-N-(2-chloro-4-nitrophenyl)-2-hydroxybenzamide] | < 4.30 | 
CC(C)C[C@H](NC(=O)[C@@H](NC(=O)OC(C)(C)C)C(C)C)C(=O)N[C@@H](Cc1ccccc1)C(=O)Nc1ccc([N+](=O)[O-])cc1Cl [tert-butyl N-[(1S)-1-{[(1S)-1-{[(1S)-1-[(2-chloro-4-nitrophenyl)carbamoyl]-2-phenylethyl]carbamoyl}-3-methylbutyl]carbamoyl}-2-methylpropyl]carbamate] | < 5.00 | 
